Experimental data as given in ChEMBL document CHEMBL4229384, “Success stories of natural product-based hybrid molecules for multi-factorial diseases” (Eur J Med Chem, 2018).
≈ marks a conversion by molar mass, not a printed value.

What was measured:
Acetylcholinesterase [1] = molecular target: T1, Acetylcholinesterase (Electrophorus electricus, UniProt O42275); assay: Inhibition of electric eel AChE
[2] = molecular target: Acetylcholinesterase (Electrophorus electricus) (UniProt O42275); assay: Potency index, ratio of galantamine IC50 to test compound IC50 for electric eel AChE
Acetylcholinesterase (Electrophorus electricus), sequence (O42275 24-633 limits assumed): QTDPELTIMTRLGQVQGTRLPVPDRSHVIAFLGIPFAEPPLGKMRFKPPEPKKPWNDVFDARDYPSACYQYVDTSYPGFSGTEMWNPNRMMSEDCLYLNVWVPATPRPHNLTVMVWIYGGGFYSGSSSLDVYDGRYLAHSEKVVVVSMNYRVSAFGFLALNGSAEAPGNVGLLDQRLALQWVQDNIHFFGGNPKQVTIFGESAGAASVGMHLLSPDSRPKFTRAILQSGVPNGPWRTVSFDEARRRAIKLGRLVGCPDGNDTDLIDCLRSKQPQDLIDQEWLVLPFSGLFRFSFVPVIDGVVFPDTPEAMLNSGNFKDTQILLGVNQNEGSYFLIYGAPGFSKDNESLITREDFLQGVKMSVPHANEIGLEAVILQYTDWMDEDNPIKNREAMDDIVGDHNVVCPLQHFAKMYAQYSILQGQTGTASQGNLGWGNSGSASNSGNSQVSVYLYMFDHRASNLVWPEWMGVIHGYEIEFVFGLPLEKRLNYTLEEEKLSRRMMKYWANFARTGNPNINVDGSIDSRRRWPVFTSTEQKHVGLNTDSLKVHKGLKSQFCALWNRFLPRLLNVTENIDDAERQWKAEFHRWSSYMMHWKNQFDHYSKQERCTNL

Acetylcholinesterase [3] = molecular target: T2, Acetylcholinesterase (Bos taurus, UniProt P23795); assay: Inhibition of bovine erythrocyte AchE using acetylthiocholine iodide as substrate after 15 mins by spectrophotometric analysis
T2 sequence (P23795 whole entry): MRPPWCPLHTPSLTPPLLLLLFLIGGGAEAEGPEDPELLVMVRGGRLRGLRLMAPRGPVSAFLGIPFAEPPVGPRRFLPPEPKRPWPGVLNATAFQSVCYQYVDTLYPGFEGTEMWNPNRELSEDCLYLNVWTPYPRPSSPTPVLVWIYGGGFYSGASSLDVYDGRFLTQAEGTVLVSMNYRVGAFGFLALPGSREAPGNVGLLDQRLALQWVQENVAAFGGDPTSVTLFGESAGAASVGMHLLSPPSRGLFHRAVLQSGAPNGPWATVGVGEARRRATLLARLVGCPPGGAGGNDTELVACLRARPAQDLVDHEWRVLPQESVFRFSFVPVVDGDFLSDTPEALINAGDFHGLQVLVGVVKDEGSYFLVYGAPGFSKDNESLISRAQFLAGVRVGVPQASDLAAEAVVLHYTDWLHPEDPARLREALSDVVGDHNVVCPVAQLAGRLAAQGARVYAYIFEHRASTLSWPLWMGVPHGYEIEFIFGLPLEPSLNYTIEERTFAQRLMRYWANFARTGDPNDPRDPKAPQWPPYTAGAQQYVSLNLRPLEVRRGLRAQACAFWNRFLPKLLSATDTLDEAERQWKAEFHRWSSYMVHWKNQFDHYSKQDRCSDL

[4] = Antioxidant activity assessed as reduction in oxidative stress; type: functional
[5] = molecular target: Amyloid-beta precursor protein (Homo sapiens, UniProt P05067); assay: Inhibition of beta amyloid (unknown origin) deposition
Amyloid-beta precursor protein, sequence (P05067 whole entry): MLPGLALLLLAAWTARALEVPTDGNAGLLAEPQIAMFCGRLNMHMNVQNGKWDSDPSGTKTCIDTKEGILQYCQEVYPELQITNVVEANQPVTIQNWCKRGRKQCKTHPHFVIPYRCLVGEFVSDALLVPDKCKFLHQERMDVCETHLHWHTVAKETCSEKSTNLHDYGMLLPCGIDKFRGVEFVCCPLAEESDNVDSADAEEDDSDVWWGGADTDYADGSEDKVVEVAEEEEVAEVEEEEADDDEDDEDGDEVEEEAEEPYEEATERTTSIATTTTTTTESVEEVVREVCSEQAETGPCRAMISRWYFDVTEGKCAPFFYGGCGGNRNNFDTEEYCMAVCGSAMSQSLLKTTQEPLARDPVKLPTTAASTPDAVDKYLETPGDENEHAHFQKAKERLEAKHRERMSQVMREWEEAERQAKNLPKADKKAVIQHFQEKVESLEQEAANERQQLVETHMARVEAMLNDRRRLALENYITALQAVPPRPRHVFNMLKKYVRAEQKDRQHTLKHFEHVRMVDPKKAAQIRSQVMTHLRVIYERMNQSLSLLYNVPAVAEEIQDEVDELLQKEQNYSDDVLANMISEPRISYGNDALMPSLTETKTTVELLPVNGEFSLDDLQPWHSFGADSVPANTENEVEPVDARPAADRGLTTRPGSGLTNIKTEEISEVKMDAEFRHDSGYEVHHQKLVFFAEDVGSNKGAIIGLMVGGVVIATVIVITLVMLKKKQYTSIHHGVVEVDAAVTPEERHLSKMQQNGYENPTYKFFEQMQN

Acetylcholinesterase [6] = molecular target: T1, Acetylcholinesterase; assay: Inhibition of electric eel AChE using acetylthiocholine iodide as substrate measured for 120 secs by spectrophotometric analysis
[7] = test system: Mycobacterium tuberculosis; assay: Antitubercular activity against Mycobacterium tuberculosis H37Rv; type: functional
DNA [8] = assay: Binding affinity to Ha-ras DNA (unknown origin) assessed as Ha-ras PCR product formation; type: nucleic-acid assay
DNA [9] = assay: Binding affinity to human estrogen receptor DNA assessed as estrogen receptor PCR product formation; type: nucleic-acid assay
UCLA P-3 = assay: Antiproliferative activity against human UCLA-P3 cells; type: functional, cell-based
MOLT-4 = assay: Antiproliferative activity against human MOLT4 cells; type: functional, cell-based
[10] = molecular target: T3, Phospholipase A2, membrane associated (Homo sapiens) (UniProt P14555); assay: Inhibition of human sPLA2-2A at 100 uM relative to control
T3 sequence (whole entry): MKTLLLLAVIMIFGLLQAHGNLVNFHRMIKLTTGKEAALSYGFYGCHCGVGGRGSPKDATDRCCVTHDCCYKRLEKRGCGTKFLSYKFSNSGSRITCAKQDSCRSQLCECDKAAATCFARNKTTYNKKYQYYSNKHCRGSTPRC

[11] = molecular target: T3, Phospholipase A2, membrane associated (Homo sapiens); assay: Inhibition of human sPLA2-2A assessed as reduction in PGE2 level at 10 uM relative to control
[12] = molecular target: T3, Phospholipase A2, membrane associated (Homo sapiens); assay: Inhibition of human sPLA2-2A assessed as reduction in nitric oxide level at 10 uM relative to control
[13] = molecular target: Receptor tyrosine-protein kinase erbB-2 (Homo sapiens, UniProt P04626); assay: Inhibition of HER2 in human MCF-7 cells; type: cell-based
Receptor tyrosine-protein kinase erbB-2, sequence (P04626 whole entry): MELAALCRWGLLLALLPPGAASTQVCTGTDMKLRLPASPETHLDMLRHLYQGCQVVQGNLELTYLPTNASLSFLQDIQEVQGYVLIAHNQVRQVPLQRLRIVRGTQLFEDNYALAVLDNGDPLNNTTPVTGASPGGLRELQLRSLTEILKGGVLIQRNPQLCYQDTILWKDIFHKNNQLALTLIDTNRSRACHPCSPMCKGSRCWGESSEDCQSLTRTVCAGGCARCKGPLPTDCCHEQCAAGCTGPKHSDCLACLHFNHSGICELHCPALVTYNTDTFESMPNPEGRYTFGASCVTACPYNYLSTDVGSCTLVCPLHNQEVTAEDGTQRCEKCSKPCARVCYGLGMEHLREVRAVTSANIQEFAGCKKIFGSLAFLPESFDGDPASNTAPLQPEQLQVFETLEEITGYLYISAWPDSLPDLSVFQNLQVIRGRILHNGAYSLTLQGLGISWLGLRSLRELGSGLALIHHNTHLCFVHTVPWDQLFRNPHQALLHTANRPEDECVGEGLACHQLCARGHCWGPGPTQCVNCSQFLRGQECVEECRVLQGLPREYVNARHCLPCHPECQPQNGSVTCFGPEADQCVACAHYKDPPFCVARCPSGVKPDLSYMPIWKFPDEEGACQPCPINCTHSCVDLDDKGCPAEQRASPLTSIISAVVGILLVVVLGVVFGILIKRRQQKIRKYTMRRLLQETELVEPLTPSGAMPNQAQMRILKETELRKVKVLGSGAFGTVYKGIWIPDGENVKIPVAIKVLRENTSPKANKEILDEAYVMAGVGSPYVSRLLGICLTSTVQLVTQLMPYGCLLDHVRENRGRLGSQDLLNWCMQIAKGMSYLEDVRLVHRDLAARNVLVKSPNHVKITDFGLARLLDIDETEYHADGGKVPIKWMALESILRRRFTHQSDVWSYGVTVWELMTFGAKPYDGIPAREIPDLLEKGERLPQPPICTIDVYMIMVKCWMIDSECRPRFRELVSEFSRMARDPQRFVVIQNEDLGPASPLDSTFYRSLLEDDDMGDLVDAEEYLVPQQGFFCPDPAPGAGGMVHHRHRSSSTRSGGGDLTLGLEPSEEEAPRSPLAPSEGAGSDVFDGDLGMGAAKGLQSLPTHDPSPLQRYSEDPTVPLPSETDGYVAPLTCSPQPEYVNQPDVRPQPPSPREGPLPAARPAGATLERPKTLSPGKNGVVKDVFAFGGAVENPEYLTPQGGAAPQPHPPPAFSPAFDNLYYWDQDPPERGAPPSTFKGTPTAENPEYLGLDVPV

Estrogen receptor = molecular target: T4, Estrogen receptor (Homo sapiens, UniProt P03372); assay: Inhibition of estrogen receptor in human MCF-7 cells; type: cell-based
T4 sequence (P03372 whole entry): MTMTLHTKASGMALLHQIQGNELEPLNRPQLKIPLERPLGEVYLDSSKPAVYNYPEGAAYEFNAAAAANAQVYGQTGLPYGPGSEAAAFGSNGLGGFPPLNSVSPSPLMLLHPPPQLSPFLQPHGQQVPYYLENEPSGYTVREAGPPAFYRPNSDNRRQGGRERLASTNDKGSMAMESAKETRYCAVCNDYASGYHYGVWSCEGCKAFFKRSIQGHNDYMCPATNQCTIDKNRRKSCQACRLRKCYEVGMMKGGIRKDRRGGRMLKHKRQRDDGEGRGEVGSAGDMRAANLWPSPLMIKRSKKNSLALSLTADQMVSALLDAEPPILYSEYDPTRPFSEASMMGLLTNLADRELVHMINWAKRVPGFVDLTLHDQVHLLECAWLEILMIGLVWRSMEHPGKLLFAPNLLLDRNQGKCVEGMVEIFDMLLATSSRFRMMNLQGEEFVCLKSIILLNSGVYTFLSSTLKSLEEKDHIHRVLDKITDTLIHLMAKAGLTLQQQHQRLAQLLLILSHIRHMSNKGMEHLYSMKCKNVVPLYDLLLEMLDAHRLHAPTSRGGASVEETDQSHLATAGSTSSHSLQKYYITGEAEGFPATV

[14] = Cytotoxicity against bovine GM07373 cells assessed as reduction in cell viability after 24 to 72 hrs by MTT assay; type: cell-based; conditions: Bos taurus
IGR-1 = assay: Cytotoxicity against human IGR-1 cells assessed as reduction in cell viability after 24 to 72 hrs by MTT assay; type: functional, cell-based
P338 = assay: Cytotoxicity against mouse […] cells assessed as reduction in cell viability after 24 to 72 hrs by MTT assay; type: functional, cell-based
[15] = Cytotoxicity against mouse […] cells assessed as reduction in cell viability after 24 to 72 hrs by MTT assay; type: cell-based
L1210 = assay: Antiproliferative activity against mouse L1210 cells after 2 to 3 days by Coulter counter method; type: functional, cell-based
[16] = molecular target: Nitric oxide synthase, inducible (Rattus norvegicus, UniProt Q06518); assay: Inhibition of rat iNOS after 12 to 24 hrs in presence of [gamma32P]ATP by electrophoretic mobility shift assays
Nitric oxide synthase, inducible, sequence (Q06518 whole entry): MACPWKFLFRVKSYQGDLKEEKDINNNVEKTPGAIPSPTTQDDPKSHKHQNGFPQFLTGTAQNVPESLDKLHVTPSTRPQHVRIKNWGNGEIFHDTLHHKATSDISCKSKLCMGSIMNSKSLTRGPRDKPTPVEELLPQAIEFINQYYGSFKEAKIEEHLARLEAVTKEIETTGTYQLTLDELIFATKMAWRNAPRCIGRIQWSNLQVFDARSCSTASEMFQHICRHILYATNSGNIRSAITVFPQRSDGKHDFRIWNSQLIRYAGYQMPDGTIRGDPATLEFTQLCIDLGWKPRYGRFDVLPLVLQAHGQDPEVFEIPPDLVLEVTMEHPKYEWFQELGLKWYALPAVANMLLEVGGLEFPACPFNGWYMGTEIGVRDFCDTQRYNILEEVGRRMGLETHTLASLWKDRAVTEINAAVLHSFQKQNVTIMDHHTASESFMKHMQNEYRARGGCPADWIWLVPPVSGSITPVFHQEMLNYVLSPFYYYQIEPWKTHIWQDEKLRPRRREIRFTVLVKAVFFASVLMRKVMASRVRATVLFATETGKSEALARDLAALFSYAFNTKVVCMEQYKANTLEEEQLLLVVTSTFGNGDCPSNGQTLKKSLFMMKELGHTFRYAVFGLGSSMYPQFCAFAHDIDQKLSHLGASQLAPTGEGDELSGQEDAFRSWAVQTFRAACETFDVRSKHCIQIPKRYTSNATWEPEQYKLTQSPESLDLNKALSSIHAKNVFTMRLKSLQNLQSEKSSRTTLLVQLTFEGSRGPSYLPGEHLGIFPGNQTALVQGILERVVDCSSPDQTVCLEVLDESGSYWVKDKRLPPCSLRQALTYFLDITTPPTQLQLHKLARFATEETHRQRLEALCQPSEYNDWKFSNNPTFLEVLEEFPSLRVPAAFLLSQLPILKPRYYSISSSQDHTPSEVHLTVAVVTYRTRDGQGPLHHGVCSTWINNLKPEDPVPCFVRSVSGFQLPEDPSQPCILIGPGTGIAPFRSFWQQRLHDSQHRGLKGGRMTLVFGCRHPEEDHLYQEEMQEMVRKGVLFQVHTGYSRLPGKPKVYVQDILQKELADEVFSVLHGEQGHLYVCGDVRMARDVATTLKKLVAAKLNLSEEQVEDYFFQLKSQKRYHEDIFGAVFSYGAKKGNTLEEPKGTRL

T1 sequence (O42275 whole entry): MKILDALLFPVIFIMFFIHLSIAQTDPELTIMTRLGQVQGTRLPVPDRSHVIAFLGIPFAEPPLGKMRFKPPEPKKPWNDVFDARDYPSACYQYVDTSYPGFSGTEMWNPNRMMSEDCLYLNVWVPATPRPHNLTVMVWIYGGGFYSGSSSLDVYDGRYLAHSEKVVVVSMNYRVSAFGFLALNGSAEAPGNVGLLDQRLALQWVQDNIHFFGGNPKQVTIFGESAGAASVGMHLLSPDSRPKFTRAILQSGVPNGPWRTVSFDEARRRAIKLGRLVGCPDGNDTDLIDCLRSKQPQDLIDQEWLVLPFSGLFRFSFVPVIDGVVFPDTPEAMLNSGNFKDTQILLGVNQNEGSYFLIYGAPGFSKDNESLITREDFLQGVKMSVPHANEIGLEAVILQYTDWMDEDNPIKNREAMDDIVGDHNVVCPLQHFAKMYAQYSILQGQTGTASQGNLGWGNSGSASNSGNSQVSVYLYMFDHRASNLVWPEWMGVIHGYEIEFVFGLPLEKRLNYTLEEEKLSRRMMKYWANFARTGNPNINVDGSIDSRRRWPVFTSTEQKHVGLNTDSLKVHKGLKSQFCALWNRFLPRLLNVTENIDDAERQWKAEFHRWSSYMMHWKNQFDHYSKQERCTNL

SMILES: COc1ccc2c3c1O[C@H]1C[C@@H](O)C=C[C@]31CC[N+](CCCCCCCCCCN1C(=O)c3ccccc3C1=O)=C2
- IC50 (Acetylcholinesterase [1]): 22 nM
- Ratio IC50 [2]: 16 to 36

SMILES: CC1CCC2CC(Cc3nc4ccccc4c(N)c32)C1 (centres undefined)
- IC50 (Acetylcholinesterase [3]): 1.3 nM

SMILES: O=C(CCCCC1CCSS1)NCCCNc1c2c(nc3cc(Cl)ccc13)CCCC2 (centres undefined) [LIPOCRINE]
- IC50 [4]: 10000 nM
- IC50 [5]: 45000 nM

SMILES: COc1ccc2c3c1O[C@H]1C[C@@H](O)CC[C@@]31CCN(CCCCCCCCN1CC[C@@]34C=C[C@H](O)C[C@@H]3Oc3c(OC)ccc(c34)C1)C2
- IC50 (Acetylcholinesterase [6]): 230 nM

SMILES: COC(=O)[C@]1(C)CCC[C@@]2(C)[C@@H]3CC[C@@]4(C)C[C@]3(CC[C@@H]21)C/C4=N\NC(=O)c1ccccn1
- MIC [7]: 10 to 20 µg/mL (≈ 22.1 to 44.3 µM)

SMILES: COc1cc2c(cc1OCCC(=O)Nc1cc(C(=O)Nc3cc(C(=O)Nc4cc(C(=O)NCCC(=N)N)n(C)c4)n(C)c3)n(C)c1)N=C[C@@H]1CCCN1C2=O
- IC50 (DNA [8]): 8000 nM
- IC50 (DNA [9]): 8000 nM

SMILES: CCN[C@H]1CO[C@@H](O[C@H]2[C@H](OC[C@]34C#C/C=C\C#C[C@H]5N(C(=O)OCCS(=O)(=O)c6ccccc6)c6ccccc6[C@@]36O[C@]56CCC4)O[C@H](C)[C@@H](NO[C@H]3C[C@H](O)[C@H](SC(=O)c4c(C)c(I)c(O[C@@H]5O[C@@H](C)[C@H](O)[C@@H](OC)[C@H]5O)c(OC)c4OC)[C@@H](C)O3)[C@@H]2O)C[C@@H]1OC
- IC50 (UCLA P-3): 1 nM
- IC50 (MOLT-4): 1 nM

SMILES: C[C@@H](C1=CC[C@@H]2[C@@H]3[C@@H](O)[C@H](O)[C@H]4C[C@@H](O)CC[C@]4(C)[C@H]3CC[C@]12C)[C@@H](O)C1=CC(=O)OC1O (some centres undefined)
- inhibition [10]: 63%
- inhibition [11]: 72%
- inhibition [12]: 64%

SMILES: CO[C@H]1/C=C\C=C(/C)C(=O)NC2=CC(=O)C(NC/C=C/CCC[C@@H]3C[C@H]4[C@@H]5CCc6cc(O)ccc6[C@H]5CC[C@]4(C)[C@H]3O)=C(C[C@@H](C)C[C@H](OC)[C@H](O)[C@@H](C)/C=C(\C)[C@@H]1OC(N)=O)C2=O (stereo in doubt)
- IC50 [13]: 100 nM
- IC50 (Estrogen receptor): 80 nM

SMILES: CC(C)[C@@H](C)/C=C/[C@@H](C)[C@H]1CC[C@H]2c3ccc4c(c3CC[C@]12C)C(=O)c1c(O)ccc(O)c1C4=O
- IC50 [14]: 34000 nM
- IC50 (IGR-1): 23000 nM
- IC50 (P338): 49000 nM
- IC50 [15]: 23000 nM

SMILES: CO[C@H]1/C=C\C=C(/C)C(=O)NC2=CC(=O)C(NCC#CCC[C@@H]3C[C@H]4[C@@H]5CCc6cc(O)ccc6[C@H]5CC[C@]4(C)[C@H]3O)=C(C[C@@H](C)C[C@H](OC)[C@H](O)[C@@H](C)/C=C(\C)[C@@H]1OC(N)=O)C2=O (stereo in doubt)
- IC50 [13]: 100 nM
- IC50 (Estrogen receptor): 220 nM

SMILES: Cc1n[nH]c2c(O)cc3c(c12)C(CCl)CN3C(=O)c1cc(C(=O)Nc2cc(C(=O)Nc3cc(C(=O)Nc4cc(C(=O)NCCC(=N)N)n(C)c4)n(C)c3)n(C)c2)n(C)n1 (centres undefined)
- IC50 (L1210): 7400 nM

SMILES: CC1(C)CC[C@]2(C(=O)O)CC[C@]3(C)C(=CC[C@@H]4[C@@]5(C)C=CC(=O)C=C5CC[C@]43C)[C@@H]2C1
- IC50 [16]: 900 nM
